Test results taken from patent US20240300944A1, “NOVEL UREA DERIVATIVE COMPOUND AS RON INHIBITOR” (LG CHEM, LTD., priority 2021, published 2024).

How the values were obtained:
[1] = molecular target: RON (Homo sapiens, UniProt Q04912); assay: Inhibitory activity against RON, TR-FRET kinase assay; format: biochemical; conditions: RON enzyme
Experimental: In order to measure the inhibitory activity of each of the compounds of Examples against RON, the IC50 of each of the compounds was measured using a Time-Resolved Fluorescence Energy Transfer Chemistry (TR-FRET).
(§1) Specifically, the compound was prepared to a concentration of 1 mM with 100% DMSO and was diluted 10 times in a stepwise manner through 3-fold dilution. 2 ul of the compound diluted in a stepwise manner was added to a 96-well-plate containing 48 ul of a 1× kinase reaction buffer (50 mM HEPES (pH 7.4), 0.01% Tween-20, 5 mM DTT, 0.5 mM Na3VO4, 2 mM EGTA, 10 mM MgCl2).
The RON protein was diluted to a concentration of 49.3 nM with an RON storage buffer (50 mM Tris-HCl (pH 7.5), 150 mM NaCl, 0.5 mM EDTA, 0.02% Triton X-100), and then diluted again to a concentration of 0.4 nM with a 1× kinase reaction buffer. As a substrate cocktail, a RON-specific substrate mixture (40 uM ULight-labeled Poly GT, 100 nM ATP) at a concentration 2 times the final reaction concentration.
Thereafter, a 384-well-plate was prepared, and 2.5 ul of each of the diluted compounds of Examples was added to a corresponding well of experimental group wells, and 2.5 ul of a 4% DMSO solution was dispensed into high control wells and low control wells.
(§2) Thereafter, 2.5 μL of 0.4 nM RON was dispensed into the high control wells and the experimental group wells, and 2.5 μL of a 1× kinase reaction buffer was added to the low control wells, and the RON and the reaction buffer were centrifuged at room temperature for 40 seconds at 1000 RPM, and then incubated at room temperature for 20 to 30 minutes. Then, 5 μL of a substrate cocktail (2×) was dispensed into all wells, centrifuged at room temperature for 40 seconds at 1000 RPM, and then incubated at room temperature for 60 minutes. Thereafter, 5 μL of 30 mM EDTA was added to all wells to terminate the reaction, and then incubated again at room temperature for 5 minutes. Thereafter, 5 μL of a 4× phosphotyrosine antibody (Perkin Elmer) containing europium was added to all wells, and then incubated at room temperature for 60 minutes. After the incubation, the 384-well-plate was read with a Vison plate reader. At this time, the excitation wavelength was 340 nm, and the emission wavelength was 620 nm and 665 nm. The IC50 value of the compound of each Example was derived using the GraphPd Prism7 program.

[2] = molecular target: cMET (Homo sapiens, UniProt P08581); assay: Inhibitory activity against MET (cMET), TR-FRET kinase assay; format: biochemical; conditions: cMET enzyme
Experimental: In addition, in order to measure the enzyme activity inhibition for cMET, the evaluation was performed in the same manner as the enzyme activity inhibition measurement experiment for the RON.
as §1, with “7.4), 0.05% BSA, 0.005%” for “7.4), 0.01%”, “Tween-20, 1” for “Tween-20, 5”, “mM MnCl2, 20” for “mM Na3VO4, 2 mM EGTA, 10”
The cMET protein was diluted to a concentration of 263 nM with a cMET storage buffer (50 mM Tris-HCl (pH 7.5), 150 mM NaCl, 0.05% Brij35, 1 mM DTT, 10% Glycerol), and then diluted again to a concentration of 2 nM with a 1× kinase reaction buffer. As a substrate cocktail, a MET-specific substrate mixture (5 uM TK peptide, […]) at a concentration 2 times the final reaction concentration.
Thereafter, a 384-well-plate was prepared, and 2.5 μl of each of the diluted compounds of Examples was added to a corresponding well of experimental group wells, and 2.5 μl of a 4% DMSO solution was dispensed into high control wells and low control wells.
as §2, with “of 2” for “of 0.4”, “nM cMET” for “nM RON”, “of 90” for “of 30”

Sequence of RON (Q04912 25-1400, species assumed): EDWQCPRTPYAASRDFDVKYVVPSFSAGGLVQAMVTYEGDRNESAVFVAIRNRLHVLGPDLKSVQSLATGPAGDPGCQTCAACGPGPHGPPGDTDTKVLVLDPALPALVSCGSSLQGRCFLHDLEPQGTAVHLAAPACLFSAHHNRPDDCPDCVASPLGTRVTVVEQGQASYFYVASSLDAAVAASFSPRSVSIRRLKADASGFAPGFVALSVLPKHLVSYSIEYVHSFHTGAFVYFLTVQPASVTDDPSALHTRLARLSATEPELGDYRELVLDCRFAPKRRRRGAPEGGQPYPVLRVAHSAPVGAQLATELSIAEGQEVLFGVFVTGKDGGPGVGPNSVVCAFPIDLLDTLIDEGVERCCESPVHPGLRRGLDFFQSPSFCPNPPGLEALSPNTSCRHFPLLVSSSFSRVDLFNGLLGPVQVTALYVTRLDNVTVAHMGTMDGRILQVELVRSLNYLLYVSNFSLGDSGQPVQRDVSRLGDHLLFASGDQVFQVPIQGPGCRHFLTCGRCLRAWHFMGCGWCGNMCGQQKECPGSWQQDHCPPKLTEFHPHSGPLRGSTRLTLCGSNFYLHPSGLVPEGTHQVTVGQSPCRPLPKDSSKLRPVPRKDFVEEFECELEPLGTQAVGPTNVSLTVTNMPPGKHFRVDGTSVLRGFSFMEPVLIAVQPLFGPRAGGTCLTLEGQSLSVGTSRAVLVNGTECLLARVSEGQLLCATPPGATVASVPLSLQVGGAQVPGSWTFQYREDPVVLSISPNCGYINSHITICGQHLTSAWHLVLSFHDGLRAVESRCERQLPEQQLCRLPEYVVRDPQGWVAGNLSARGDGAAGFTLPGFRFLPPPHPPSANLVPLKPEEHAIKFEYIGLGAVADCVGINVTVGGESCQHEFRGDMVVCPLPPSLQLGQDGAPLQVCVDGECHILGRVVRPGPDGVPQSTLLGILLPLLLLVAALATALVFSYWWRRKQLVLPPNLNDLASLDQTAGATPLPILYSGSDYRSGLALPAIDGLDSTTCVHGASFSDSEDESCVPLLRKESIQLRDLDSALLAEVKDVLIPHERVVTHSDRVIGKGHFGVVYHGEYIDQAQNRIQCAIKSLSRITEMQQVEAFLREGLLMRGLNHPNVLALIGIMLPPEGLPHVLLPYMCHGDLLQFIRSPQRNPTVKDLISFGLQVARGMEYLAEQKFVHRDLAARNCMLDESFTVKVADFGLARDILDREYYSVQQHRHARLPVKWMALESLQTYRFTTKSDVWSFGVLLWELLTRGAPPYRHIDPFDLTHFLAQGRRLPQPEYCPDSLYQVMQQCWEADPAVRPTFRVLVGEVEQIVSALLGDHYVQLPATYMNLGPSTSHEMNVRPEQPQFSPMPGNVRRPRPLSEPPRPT
Sequence of cMET (P08581 25-1390): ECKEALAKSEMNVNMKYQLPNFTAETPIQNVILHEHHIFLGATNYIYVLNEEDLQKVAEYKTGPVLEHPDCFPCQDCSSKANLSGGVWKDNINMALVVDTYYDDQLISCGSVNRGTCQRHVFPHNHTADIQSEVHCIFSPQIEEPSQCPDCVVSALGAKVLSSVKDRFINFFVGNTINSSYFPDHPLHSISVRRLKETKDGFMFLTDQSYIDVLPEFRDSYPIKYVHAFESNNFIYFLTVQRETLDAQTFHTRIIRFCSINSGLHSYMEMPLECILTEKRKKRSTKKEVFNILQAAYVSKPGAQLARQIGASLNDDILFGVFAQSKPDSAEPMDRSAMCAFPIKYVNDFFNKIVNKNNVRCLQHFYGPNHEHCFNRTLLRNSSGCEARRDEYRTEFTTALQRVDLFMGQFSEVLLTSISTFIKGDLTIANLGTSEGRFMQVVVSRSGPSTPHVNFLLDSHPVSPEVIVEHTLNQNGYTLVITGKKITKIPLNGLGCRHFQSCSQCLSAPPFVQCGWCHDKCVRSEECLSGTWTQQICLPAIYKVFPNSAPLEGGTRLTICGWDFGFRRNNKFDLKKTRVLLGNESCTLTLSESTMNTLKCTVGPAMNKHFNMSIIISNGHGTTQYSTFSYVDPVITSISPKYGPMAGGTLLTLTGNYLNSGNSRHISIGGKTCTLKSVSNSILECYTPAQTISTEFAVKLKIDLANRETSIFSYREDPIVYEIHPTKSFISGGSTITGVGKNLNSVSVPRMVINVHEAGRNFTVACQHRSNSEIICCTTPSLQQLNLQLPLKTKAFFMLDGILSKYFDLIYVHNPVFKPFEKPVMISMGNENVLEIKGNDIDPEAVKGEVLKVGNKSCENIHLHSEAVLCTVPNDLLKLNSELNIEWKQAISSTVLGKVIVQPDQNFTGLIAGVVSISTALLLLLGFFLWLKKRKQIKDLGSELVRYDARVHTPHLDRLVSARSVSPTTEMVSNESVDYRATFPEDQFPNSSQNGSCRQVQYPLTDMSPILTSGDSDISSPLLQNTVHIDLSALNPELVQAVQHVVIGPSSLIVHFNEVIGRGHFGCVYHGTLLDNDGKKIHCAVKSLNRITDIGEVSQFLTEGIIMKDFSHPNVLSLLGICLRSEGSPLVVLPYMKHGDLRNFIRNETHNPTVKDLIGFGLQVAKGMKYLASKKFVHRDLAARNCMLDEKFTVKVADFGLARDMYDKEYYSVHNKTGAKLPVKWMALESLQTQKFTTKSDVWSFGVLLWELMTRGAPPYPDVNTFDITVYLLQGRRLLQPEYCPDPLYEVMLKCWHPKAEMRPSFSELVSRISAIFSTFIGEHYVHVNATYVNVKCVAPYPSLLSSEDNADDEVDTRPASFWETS

Compound	IC50 [1] [µM]	IC50 [2] [µM]
CC(C)n1c(=O)[nH]c2nccc(Oc3ccc(NC(=O)Cc4cnn(-c5ccccc5)c4C(F)(F)F)cc3F)c21 [Example 32, N-(3-fluoro-4-((1-isopropyl-2-oxo-2,3-dihydro-1H-imidazo[4,5-b]pyridine-7-yl)oxy)phenyl)-2-(1-phenyl-5-(trifluoromethyl)-1H-pyrazol-4-yl)acetamide]	0.05 to 0.5	0.5 to 5
O=C(Nc1ccc(Oc2ccnc3[nH]c(=O)[nH]c23)c(F)c1)c1cnn(-c2ccccc2)c1C(F)(F)F [Example 2, N-(3-fluoro-4-((2-oxo-2,3-dihydro-1H-imidazo[4,5-b]pyridine-7-yl)oxy)phenyl)-1-phenyl-5-(trifluoromethyl)-1H-pyrazole-4-carboxamide]	< 0.05	> 5
CC(C)n1c(=O)[nH]c2nccc(Oc3ccc(NC(=O)c4cnn(C5CCCCCC5)c4C(F)(F)F)cc3F)c21 [Example 31, 1-cycloheptyl-N-(3-fluoro-4-((1-isopropyl-2-oxo-2,3-dihydro-1H-imidazo[4,5-b]pyridine-7-yl)oxy)phenyl)-5-(trifluoromethyl)-1H-pyrazole-4-carboxamide]	< 0.05	0.5 to 5
CC(C)n1c(=O)[nH]c2nccc(Oc3ccc(NC(=O)c4cnn(-c5ccccc5)c4-c4ccccc4)cc3F)c21 [Example 19, N-(3-fluoro-4-((1-isopropyl-2-oxo-2,3-dihydro-1H-imidazo[4,5-b]pyridine-7-yl)oxy)phenyl)-1,5-diphenyl-1H-pyrazole-4-carboxamide]	0.05 to 0.5	0.05 to 0.5
CC(C)n1c(=O)[nH]c2nccc(Oc3ccc(NC(=O)c4cnn(-c5c(F)cccc5F)c4C(F)(F)F)cc3F)c21 [Example 36, 1-(2,6-difluorophenyl)-N-(3-fluoro-4-((1-isopropyl-2-oxo-2,3-dihydro-1H-imidazo[4,5-b]pyridine-7-yl)oxy)phenyl)-5-(trifluoromethyl)-1H-pyrazole-4-carboxamide]	< 0.05	0.5 to 5
O=C(Nc1ccc(Oc2ccnc3[nH]c(=O)n(C4CCCC4)c23)c(F)c1)c1ncn(-c2ccccc2)c1C(F)(F)F [Example 21, N-(4-((1-cyclopentyl-2-oxo-2,3-dihydro-1H-imidazo[4,5-b]pyridine-7-yl)oxy)-3-fluorophenyl)-1-phenyl-5-(trifluoromethyl)-1H-imidazole-4-carboxamide]	< 0.05	0.5 to 5

More lines, now with the values ahead:

IC50 [1] [µM]	IC50 [2] [µM]	Compound
< 0.05	> 5	CC(C)n1c(=O)[nH]c2nccc(Oc3ccc(NC(=O)c4ncn(-c5ccccc5)c4C(F)(F)F)cc3F)c21 [Example 8, N-(3-fluoro-4-((1-isopropyl-2-oxo-2,3-dihydro-1H-imidazo[4,5-b]pyridine-7-yl)oxy)phenyl)-1-phenyl-5-(trifluoromethyl)-1H-imidazole-4-carboxamide]
0.05 to 0.5	> 5	CC(C)n1c(=O)[nH]c2nccc(Oc3ccc(NC(=O)c4ncc(-c5ccccc5)s4)cc3F)c21 [Example 16, N-(3-fluoro-4-((1-isopropyl-2-oxo-2,3-dihydro-1H-imidazo[4,5-b]pyridine-7-yl)oxy)phenyl)-5-phenylthiazole-2-carboxamide]
